Columns and labels:
[1] = tested on: CT26 colon carcinoma tumors; assay: Colon carcinoma tumor growth and cure, two 224Ra wires with 5-FU; type: in vivo, Balb/c mice; settings: 5-FU 75 mg/kg 24 hours prior to wires; tumors 6-7 mm in diameter
Method: FIG. 7 is a graph showing the effect of two ^224Ra-loaded wires combined with 5-FU treatment on colon cancers. Treatment was applied to Balb/c mice bearing 6-7 mm in diameter tumors. Two ^224Ra wires: Tumor bearing mice treated with 2 ^224Ra wires, carrying activities in the range of 27.9-35.5 kBq (n=5). Two ^224Ra wires combined with 5-FU: administration of 75 mg/kg 5-FU 24 hours prior to treatment with 2 ^224Ra wires, carrying activities in the range of 32.1-33.8 kBq (n=5). Two Inert wires combined with 5-FU: administration of 75 mg/kg 5-FU 24 hours prior to treatment with 2 inert wires (n=6). Two Inert wires: Tumor bearing mice treated with 2 inert wires (n=6).
Tumor cell inoculation: Animals were inoculated intra-cutaneously with 5·10^5 SQ2 cells in 0.2 ml HBSS or 10^5 (CT26 and Panc-02) in 0.1 ml of HBSS (Biological industries, Beit haemek, Israel) into the low lateral side of the back. Local tumor growth was determined by measuring three mutually orthogonal tumor diameters with a digital caliper (Mitutoyo, Japan). The volume of tumor was calculated using the formula: V=(π/6)·D1D2D3, where D1, D2, D3 stand for the measured diameters […]

[2] = tested on: SQ2 tumors; assay: Tumor growth and survival, two 224Ra wires at the tumor base with two cisplatin doses; type: in vivo, BALB/c mice
Method: Tumor cell inoculation: Animals were inoculated intra-cutaneously with 5·10^5 SQ2 cells in 0.2 ml HBSS or 10^5 (CT26 and Panc-02) in 0.1 ml of HBSS (Biological industries, Beit haemek, Israel) into the low lateral side of the back. Local tumor growth was determined by measuring three mutually orthogonal tumor diameters with a digital caliper (Mitutoyo, Japan). The volume of tumor was calculated using the formula: V=(π/6)·D1D2D3, where D1, D2, D3 stand for the measured diameters
Wire insertion: Wires, either loaded with ^224Ra or inert, cut to a length of 5-6 mm, were placed near the tip of a 23G needle attached to a 2.5 ml syringe (Picindolor, Rome, Italy) and inserted into the tumor by a plunger placed internally along the syringe axis.
Statistical analysis: The statistical significance (p-value) of the differences between tumor volumes in the various groups was assessed by applying Student's two-sided t-test and repeated measures ANOVA. Survival analysis (Mantel-Cox test) was carried out using Statsoft Statistica 7.0.
The following experiment was performed in order to examine the effect of two ^224Ra wires inserted horizontally to the base of each tumor in combination with 2 doses of chemotherapy. The cisplatin was administered using the same regime as that described in Example 3.
A pronounced difference between tumor volumes of the irradiated group (^224Ra wires) and the animals treated with Cisplatin (CP) can be seen 10 days following DART treatment. […] Moreover, when analyzing the results of the group treated with the combination of Cisplatin and ^224Ra wires, it appears that a major growth inhibition was achieved when both modalities were administrated concomitantly. […] Twenty-four days following DART treatment, the average tumor volumes of the combined treatment group was 14 fold smaller compared to the inert control group (300 mm^3 and 4286 mm^3 respectively), and 3 fold smaller compared to the best effect achieved by the radioactive wires alone (924 mm^3). […]

[3] = tested on: lung metastases of SQ2 tumors; assay: Histological assessment of lung metastatic load; type: in vivo, BALB/c mice; settings: treatment given alone, day 26, compared to inert wires
Method: Histology: Histological analysis was performed on BALB/c mice lungs, both treated and untreated. Immediately following their removal, lungs were fixed by a 4% formaldehyde solution (Sigma, Rehovot, Israel) for at least 24 hrs. The preserved specimens were embedded in paraffin, and sections (5-10 μm) were stained with hematoxylin-eosin (H&E) (Surgipath, Richmond, USA) and analyzed for metastases detection. Metastatic burden quantification was performed by summing the gray values of all the pixels in the region of interest (ROI) divided by the number of pixels using image J free software [http://rsbdotinfodotnihdotgov/ij/].
Histological assessment of lung sections was conducted in order to investigate the effect of the destruction of the primary tumor by DART wires on the development of metastases with or without the addition of cisplatin. Each 4 groups (Inert, ^224Ra wires, CP, CP+^224Ra wires) contained 3 animals. Animals were sacrificed at day 26 (lung metastases has been observed in this model at this time in previous studies) and lungs were harvested and processed for histological analysis and compared to normal lung tissues taken from healthy BALB/c mice. FIG. 5C describes the inhibition of lung metastatic load in mice treated with both intratumoral alpha irradiation and chemotherapy when compared to lungs of mice treated with inert wires.

[4] = tested on: SQ2 cells; assay: XTT cell proliferation assay on radioactive (224Ra-implanted) microplates; type: cell-based, mouse
Method: Tumors: SQ2 cell line is a murine anaplastic cell line, which was generated from a SCC tumor that has developed spontaneously in a male BALB/c mouse. Panc02 is a murine pancreatic carcinoma cell line. CT26 cells is a N-nitroso-N-methylurethane-(NNMU) induced, undifferentiated colon carcinoma cell line which was purchased from the ATCC (CRL-2638). All cells were grown in Dulbecco's Modified Eagle Medium (DMEM) supplemented with 10% Fetal Calf Serum (Biological Industries, Beit Haemek, Israel), L-glutamine (2 mM), Penicillin (100 U/ml) and Streptomycin (100 μg/ml). […]
Cell proliferation assay: The antiproliferative effects of alpha particles and cisplatin, alone and in combination, were determined using a 3-bis (2-methoxy-4-nitro-5 sulfenyl)-(2H)-tetrazolium-5-carboxanilide (XTT) assay (Cell Proliferation Kit, Biological industries, Beit-haemek, Israel). […] After two hours of incubation, absorbance was analyzed using an automated spectrophotometer (VersaMax, Molecular Devices, USA) at 475 nm wavelength.
SQ2 cells were plated in 96 well plates implanted with ^224Ra atoms (0, 0.02, 0.063, 0.2, 0.63 and 2 Bq/mm^2, radioactive microplates). […] Cell numbers were assessed by the XTT assay 24, 48, and 72 hrs of incubation and expressed as percent of non-treated control cells.

O=c1[nH]cc(F)c(=O)[nH]1 [Two inert wires and 5-FU, 5-fluorouracil]
No. of animals with tumors following treatment [1]: 6/6 with

N.N.[Cl][Pt][Cl] [cisplatin]
average tumor volume, fold greater than the DART treated group ([2]; 32 days after tumor cell inoculation, cisplatin 2 x 5 mg/kg vs two 224Ra wires): 2.14 fold | prolongation of average survival compared to inert group ([2]; two wires, cisplatin 2 x 5 mg/kg): 17% | mean survival ([2]; two wires, cisplatin 2 x 5 mg/kg, inert control 43.92 days): 51.38 days | effect on lung metastatic burden (in words) [3]: decreased metastatic burden although less than the combined treatment | proliferation inhibition ([4]; 0.3 μM cisplatin alone, 72 hours): 21% | antiproliferative effect ([4]; 3 and 30 μM, drug alone): > 60%
